Experimental data from patent publication US20150141381A1, “TETRACYCLINE COMPOUNDS HAVING TARGET THERAPEUTIC ACTIVITIES” (Paratek Pharmaceuticals, Inc., priority 2001, published 2015).
Read-outs that look alike come from different tables or passages of the source.

Tests used:
S. aureus RN450 = assay: In Vitro Anti-Bacterial Activity Assay (MIC), gram positive; assay type: cell-based; conditions: Staphylococcus aureus, RN450, 18 h
E. coli mL308 225 = assay: In Vitro Anti-Bacterial Activity Assay (MIC), gram negative; assay type: cell-based; conditions: Escherichia coli, ML308225, 18 h
[1] = MIC class, Table 3 (Continued), read-out: Gram+ activity
[2] = MIC class, Table 3 (Continued), read-out: Gram− activity
[3] = MIC class, Table 3, read-out: Antibiotic Activity Gram +
[4] = MIC class, Table 3, read-out: Antibiotic Activity Gram −
[5] = gram positive bacteria, read-out: Antibiotic Activity Gram + (MIC)
[6] = gram negative bacteria, read-out: Antibiotic Activity Gram − (MIC)

## CC(=O)c1ccc(-c2ccc(O)c3c2C[C@H]2C[C@H]4[C@H](N(C)C)C(O)=C(C(N)=O)C(=O)[C@@]4(O)C(O)=C2C3=O)cc1
S. aureus RN450; [1]
  MIC: < 4 µg/mL
E. coli mL308 225; [2]
  MIC: < 4 µg/mL

## CN(C)c1cc(-c2cccs2)c(O)c2c1C[C@H]1C[C@H]3[C@H](N(C)C)C(O)=C(C(N)=O)C(=O)[C@@]3(O)C(O)=C1C2=O [W]
S. aureus RN450; [3]
  MIC: < 4 µg/mL
E. coli mL308 225; [4]
  MIC: > 4 µg/mL

## CN(C)c1cc(CNC(N)=O)c(O)c2c1C[C@H]1C[C@H]3[C@H](N(C)C)C(O)=C(C(N)=O)C(=O)[C@@]3(O)C(O)=C1C2=O
S. aureus RN450; [5]
  MIC: > 4 µg/mL
E. coli mL308 225; [6]
  MIC: > 4 µg/mL

## CN(C)[C@@H]1C(O)=C(C(N)=O)C(=O)[C@@]2(O)C(O)=C3C(=O)c4c(O)ccc(CN5CCOCC5)c4C[C@H]3C[C@@H]12
S. aureus RN450; [5]
  MIC: < 4 µg/mL
E. coli mL308 225; [6]
  MIC: > 4 µg/mL

## CN(C)c1ccc(O)c2c1C[C@H]1C[C@H]3[C@H](N(C)C)C(O)=C(C(=O)NCNC(=O)CCl)C(=O)[C@@]3(O)C(O)=C1C2=O [DN]
S. aureus RN450; [3]
  MIC: < 4 µg/mL
E. coli mL308 225; [4]
  MIC: > 4 µg/mL

## C=CCCOC(=O)NCc1cc(N(C)C)c2c(c1O)C(=O)C1=C(O)[C@]3(O)C(=O)C(C(N)=O)=C(O)[C@@H](N(C)C)[C@@H]3C[C@@H]1C2 [EO]
S. aureus RN450; [3]
  MIC: < 4 µg/mL
E. coli mL308 225; [4]
  MIC: > 4 µg/mL

## Cc1c2c(c(O)c3c(O)cccc13)C(=O)[C@]1(O)C(=O)C(C(N)=O)=C(O)[C@@H](N(C)C)[C@@H]1C2
S. aureus RN450; [1]
  MIC: < 4 µg/mL
E. coli mL308 225; [2]
  MIC: < 4 µg/mL

## CC1c2ccc(-c3cc4ccccc4o3)c(O)c2C(=O)C2=C(O)[C@]3(O)C(=O)C(C(N)=O)=C(O)[C@@H](N(C)C)[C@@H]3[C@@H](O)[C@@H]21 (stereo partly shown)
S. aureus RN450; [1]
  MIC: < 4 µg/mL
E. coli mL308 225; [2]
  MIC: < 4 µg/mL

## CC(=O)c1cccc(-c2ccc(O)c3c2C[C@H]2C[C@H]4[C@H](N(C)C)C(O)=C(C(N)=O)C(=O)[C@@]4(O)C(O)=C2C3=O)c1 [AO]
S. aureus RN450; [3]
  MIC: < 4 µg/mL
E. coli mL308 225; [4]
  MIC: > 4 µg/mL

## CC(C)NCc1cc(N(C)C)c2c(c1O)C(=O)C1=C(O)[C@]3(O)C(=O)C(C(N)=O)=C(O)[C@@H](N(C)C)[C@@H]3C[C@@H]1C2
S. aureus RN450; [5]
  MIC: < 4 µg/mL
E. coli mL308 225; [6]
  MIC: > 4 µg/mL

## CN(C)[C@@H]1C(O)=C(C(N)=O)C(=O)[C@@]2(O)C(O)=C3C(=O)c4c(O)ccc(S(=O)(=O)O)c4C[C@H]3C[C@@H]12
S. aureus RN450; [5]
  MIC: > 4 µg/mL
E. coli mL308 225; [6]
  MIC: > 4 µg/mL

## CN(C)[C@@H]1C(O)=C(C(N)=O)C(=O)[C@@]2(O)C(O)=C3C(=O)c4c(O)ccc(C#CCNS(C)(=O)=O)c4C[C@H]3C[C@@H]12 [CM]
S. aureus RN450; [3]
  MIC: > 4 µg/mL
E. coli mL308 225; [4]
  MIC: > 4 µg/mL

## CN(C)[C@@H]1C(O)=C(C(N)=O)C(=O)[C@@]2(O)C(O)=C3C(=O)c4c(O)ccc(CCc5ccccn5)c4C[C@H]3C[C@@H]12 [BY]
S. aureus RN450; [3]
  MIC: < 4 µg/mL
E. coli mL308 225; [4]
  MIC: > 4 µg/mL

## CN(C)[C@@H]1C(O)=C(C(N)=O)C(=O)[C@@]2(O)C(O)=C3C(=O)c4c(O)ccc(CC(Cl)C5=CCCCC5)c4C[C@H]3C[C@@H]12 (stereo partly shown)
S. aureus RN450; [1]
  MIC: < 4 µg/mL
E. coli mL308 225; [2]
  MIC: < 4 µg/mL

## CN1CCC(NCc2cc(N(C)C)c3c(c2O)C(=O)C2=C(O)[C@]4(O)C(=O)C(C(N)=O)=C(O)[C@@H](N(C)C)[C@@H]4C[C@@H]2C3)CC1
S. aureus RN450; [5]
  MIC: > 4 µg/mL
E. coli mL308 225; [6]
  MIC: > 4 µg/mL

## CN(C)[C@@H]1C(O)=C(C(N)=O)C(=O)[C@@]2(O)C(O)=C3C(=O)c4c(O)c(S(=O)(=O)O)cc(Cl)c4C=C3C[C@@H]12
S. aureus RN450; [5]
  MIC: > 4 µg/mL
E. coli mL308 225; [6]
  MIC: > 4 µg/mL

## CN(C)c1ccc(-c2cc(C#CC3=CCCCC3)c(O)c3c2C[C@H]2C[C@H]4[C@H](N(C)C)C(O)=C(C(N)=O)C(=O)[C@@]4(O)C(O)=C2C3=O)cc1 [HR]
S. aureus RN450; [3]
  MIC: > 4 µg/mL
E. coli mL308 225; [4]
  MIC: > 4 µg/mL

## CN(C)c1cc(NCc2cc(F)cc(F)c2)c(O)c2c1C[C@H]1C[C@H]3[C@H](N(C)C)C(O)=C(C(N)=O)C(=O)[C@@]3(O)C(O)=C1C2=O
S. aureus RN450; [5]
  MIC: > 4 µg/mL
E. coli mL308 225; [6]
  MIC: > 4 µg/mL

## COCCOC(=O)Nc1ccc(-c2ccc(O)c3c2C[C@H]2C[C@H]4[C@H](N(C)C)C(O)=C(C(N)=O)C(=O)[C@@]4(O)C(O)=C2C3=O)cc1 [HH]
S. aureus RN450; [3]
  MIC: < 4 µg/mL
E. coli mL308 225; [4]
  MIC: > 4 µg/mL

## CN(C)c1cc(NC(=S)Nc2ccc([N+](=O)[O-])cc2)c(O)c2c1C[C@H]1C[C@H]3[C@H](N(C)C)C(O)=C(C(N)=O)C(=O)[C@@]3(O)C(O)=C1C2=O [DA]
S. aureus RN450; [3]
  MIC: < 4 µg/mL
E. coli mL308 225; [4]
  MIC: > 4 µg/mL

## CN(C)[C@@H]1C(O)=C(C(N)=O)C(=O)[C@@]2(O)C(O)=C3C(=O)c4c(O)ccc(-c5ccc(CNCc6cccc(Cl)c6)cc5)c4C[C@H]3C[C@@H]12
S. aureus RN450; [5]
  MIC: < 4 µg/mL
E. coli mL308 225; [6]
  MIC: < 4 µg/mL

## CN(C)[C@@H]1C(O)=C(C(N)=O)C(=O)[C@@]2(O)C(O)=C3C(=O)c4c(O)ccc(/C=C/S(C)(C)C)c4C[C@H]3C[C@@H]12
S. aureus RN450; [1]
  MIC: < 4 µg/mL
E. coli mL308 225; [2]
  MIC: < 4 µg/mL

## CCN(CC)Cc1ccc(O)c2c1C[C@H]1C[C@H]3[C@@H](N(C)C)C(O)=C(C(N)=O)C(=O)[C@@]3(O)C(O)=C1C2=O [KI]
S. aureus RN450; [3]
  MIC: < 4 µg/mL
E. coli mL308 225; [4]
  MIC: < 4 µg/mL

## CCCC#Cc1cc(N(C)C)c2c(c1O)C(=O)C1=C(O)[C@]3(O)C(=O)C(C(N)=O)=C(O)[C@@H](N(C)C)[C@@H]3C[C@@H]1C2 [DY]
S. aureus RN450; [3]
  MIC: < 4 µg/mL
E. coli mL308 225; [4]
  MIC: > 4 µg/mL

## COC(=O)c1ccc(CNCc2cc(N(C)C)c3c(c2O)C(=O)C2=C(O)[C@]4(O)C(=O)C(C(N)=O)=C(O)[C@@H](N(C)C)[C@@H]4C[C@@H]2C3)cc1
S. aureus RN450; [5]
  MIC: < 4 µg/mL
E. coli mL308 225; [6]
  MIC: > 4 µg/mL

## COc1cc(-c2ccc(O)c3c2C[C@H]2C[C@H]4[C@H](N(C)C)C(O)=C(C(N)=O)C(=O)[C@@]4(O)C(O)=C2C3=O)cc(OC)c1OC [GE]
S. aureus RN450; [3]
  MIC: < 4 µg/mL
E. coli mL308 225; [4]
  MIC: > 4 µg/mL

## CC1c2ccc(C3(C)CCCC3)c(O)c2C(=O)C2=C(O)[C@]3(O)C(=O)C(C(N)=O)=C(O)[C@@H](N(C)C)[C@@H]3[C@@H](O)[C@@H]21 (stereo partly shown)
S. aureus RN450; [1]
  MIC: < 4 µg/mL
E. coli mL308 225; [2]
  MIC: < 4 µg/mL

## CCN(CC)Cc1cc(N(C)C)c2c(c1O)C(=O)C1=C(O)[C@]3(O)C(=O)C(C(N)=O)=C(O)[C@@H](N(C)C)[C@@H]3C[C@@H]1C2
S. aureus RN450; [5]
  MIC: < 4 µg/mL
E. coli mL308 225; [6]
  MIC: > 4 µg/mL

## CCC(NCc1cc(N(C)C)c2c(c1O)C(=O)C1=C(O)[C@]3(O)C(=O)C(C(N)=O)=C(O)C(N(C)C)[C@@H]3C[C@@H]1C2)C(F)(F)F (stereo partly shown) [NT]
S. aureus RN450; [3]
  MIC: < 4 µg/mL
E. coli mL308 225; [4]
  MIC: > 4 µg/mL

## C[C@H]1c2ccc(NC3CCN(Cc4ccccc4)CC3)c(O)c2C(=O)C2=C(O)[C@]3(O)C(=O)C(C(N)=O)=C(O)[C@@H](N(C)C)[C@@H]3[C@@H](O)[C@@H]21 [JK]
S. aureus RN450; [3]
  MIC: < 4 µg/mL
E. coli mL308 225; [4]
  MIC: < 4 µg/mL

## C/C(=N\OC(C)(C)C)c1ccc(O)c2c1C[C@H]1C[C@H]3[C@H](N(C)C)C(O)=C(C(N)=O)C(=O)[C@@]3(O)C(O)=C1C2=O
S. aureus RN450; [5]
  MIC: < 4 µg/mL
E. coli mL308 225; [6]
  MIC: < 4 µg/mL

## CN(C)c1cc(CCCNS(C)(=O)=O)c(O)c2c1C[C@H]1C[C@H]3[C@H](N(C)C)C(O)=C(C(N)=O)C(=O)[C@@]3(O)C(O)=C1C2=O
S. aureus RN450; [5]
  MIC: > 4 µg/mL
E. coli mL308 225; [6]
  MIC: > 4 µg/mL

## CN(C)c1cc(CNCc2ccc(C#N)cc2)c(O)c2c1C[C@H]1C[C@H]3[C@H](N(C)C)C(O)=C(C(N)=O)C(=O)[C@@]3(O)C(O)=C1C2=O
S. aureus RN450; [5]
  MIC: < 4 µg/mL
E. coli mL308 225; [6]
  MIC: > 4 µg/mL

## CO/N=C(/C)c1ccc(O)c2c1C[C@H]1C[C@H]3C(N(C)C)C(O)=C(C(N)=O)C(=O)[C@@]3(O)C(O)=C1C2=O (stereo partly shown) [ET]
S. aureus RN450; [3]
  MIC: < 4 µg/mL
E. coli mL308 225; [4]
  MIC: < 4 µg/mL

## CN(C)c1cc(CNCc2ccc(F)cc2)c(O)c2c1C[C@H]1C[C@H]3[C@H](N(C)C)C(O)=C(C(N)=O)C(=O)[C@@]3(O)C(O)=C1C2=O
S. aureus RN450; [5]
  MIC: < 4 µg/mL
E. coli mL308 225; [6]
  MIC: < 4 µg/mL
